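In this assay, cells in 96-well plates receive the compound at five concentrations for 48 hours. Endpoints are linearly interpolated between the surrounding concentrations. TGI is the concentration that stops growth completely.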
What was measured:
Experiment in all cases: NCI tumour cell line growth inhibition, 48 h
XF 498 CNS = tested on: XF 498 CNS
SNB-75 CNS = tested on: SNB-75 CNS
EKVX NSCLC = tested on: EKVX NSCLC
SNB-78 CNS = tested on: SNB-78 CNS
RXF-631 renal = tested on: RXF-631 renal
DLD-1 colon = tested on: DLD-1 colon
HL-60(TB) leukemia = tested on: HL-60(TB) leukemia
NCI-H522 lung = tested on: NCI-H522 lung
SF-295 CNS = tested on: SF-295 CNS
SK-MEL-2 melanoma = tested on: SK-MEL-2 melanoma
SW-620 colon = tested on: SW-620 colon
M19-MEL melanoma = tested on: M19-MEL melanoma
SK-OV-3 ovarian = tested on: SK-OV-3 ovarian
SF-539 CNS = tested on: SF-539 CNS
DMS 114 small cell lung = tested on: DMS 114 small cell lung
DMS 273 small cell lung = tested on: DMS 273 small cell lung
HOP-92 NSCLC = tested on: HOP-92 NSCLC
BT-549 breast = tested on: BT-549 breast
NCI/ADR-RES ovarian = tested on: NCI/ADR-RES ovarian
HS 578T breast = tested on: HS 578T breast

## CCOC(=O)/C(C1=N[C@H](C(=O)OCC)CS1)=C(\O)c1ccccc1
XF 498 CNS
  TGI: > 100 µM
SNB-75 CNS
  TGI: > 100 µM
EKVX NSCLC
  TGI: > 100 µM
SNB-78 CNS
  TGI: > 100 µM
RXF-631 renal
  TGI: > 100 µM
DLD-1 colon
  TGI: > 100 µM
HL-60(TB) leukemia
  TGI: > 100 µM
NCI-H522 lung
  TGI: > 100 µM
SF-295 CNS
  TGI: > 100 µM
SK-MEL-2 melanoma
  TGI: > 100 µM
SW-620 colon
  TGI: > 100 µM

## NNc1nnc(-c2ccccc2)nc1Cc1ccccc1
XF 498 CNS
  TGI: 79.3 µM
M19-MEL melanoma
  TGI: > 100 µM
SK-OV-3 ovarian
  TGI: > 100 µM
SF-539 CNS
  TGI: 64.1 µM
EKVX NSCLC
  TGI: > 100 µM
DMS 114 small cell lung
  TGI: 17 µM
DLD-1 colon
  TGI: > 100 µM
HL-60(TB) leukemia
  TGI: 38 µM
NCI-H522 lung
  TGI: > 100 µM
SK-MEL-2 melanoma
  TGI: > 100 µM
SW-620 colon
  TGI: > 100 µM
DMS 273 small cell lung
  TGI: > 100 µM

## Cc1cc(=O)[nH]c(NN2C(Cl)C(=O)C2c2ccco2)n1 (centres undefined)
M19-MEL melanoma
  TGI: > 100 µM
SNB-75 CNS
  TGI: 68 µM
SF-539 CNS
  TGI: 85.9 µM
EKVX NSCLC
  TGI: > 100 µM
SNB-78 CNS
  TGI: > 100 µM
DMS 114 small cell lung
  TGI: > 100 µM
HOP-92 NSCLC
  TGI: 69.8 µM
HL-60(TB) leukemia
  TGI: 39.3 µM
SK-MEL-2 melanoma
  TGI: 99.7 µM
SW-620 colon
  TGI: > 100 µM
DMS 273 small cell lung
  TGI: > 100 µM

## C/C(=N\NC(=O)c1ccncc1)c1cccc(C(F)(F)F)c1
SNB-75 CNS
  TGI: > 10 µM
SK-OV-3 ovarian
  TGI: > 10 µM
SF-539 CNS
  TGI: > 10 µM
EKVX NSCLC
  TGI: > 10 µM
BT-549 breast
  TGI: > 10 µM
NCI/ADR-RES ovarian
  TGI: > 10 µM
HOP-92 NSCLC
  TGI: > 10 µM
HS 578T breast
  TGI: > 10 µM
HL-60(TB) leukemia
  TGI: > 10 µM
SW-620 colon
  TGI: > 10 µM
